Laboratory results from US6551772B1, “Model for viral infection and immune response” (AntiCancer, Inc., priority 1996, dated 2003).

Test system: human tonsil histocultures
Type: cell-based
Conditions: for donors whose tissue responded by producing antigen-specific antibodies: antigen added to medium for 2 days, responding donors out of donors tested; for dose dependence of specific IgG response: antigen in the range of 10-100 ng/ml; for induction of antibody against the other antigen and effect on total IgG production: challenge by either TT or DT

| Substance | donors whose tissue responded by producing antigen-specific antibodies | dose dependence of specific IgG response | induction of antibody against the other antigen and effect on total IgG production | absolute amount of anti-TT IgG in medium (varied from tissue to tissue) |
| --- | --- | --- | --- | --- |
| tetanus toxoid | 42 out of 55 | dose-dependent | did not induce the production of antibody against the other antigen nor did it increase total IgG production | hundreds to several thousands |
| diphtheria toxin [DT] | 17 of 24 | dose-dependent | did not induce the production of antibody against the other antigen nor did it increase total IgG production | – |
